# Experiments:
# morningglory = assay: Test C preemergence; format: in vivo, Ipomoea coccinea; settings: for Plant response rating (scale of 0 to 100 where 0 is no effect and 100 is complete control): Morningglory, preemergence; for Morningglory plant response rating (0 to 100): Preemergence, visual rating after 13 to 15 d
# Source text: Seeds of plant species selected from blackgrass (Alopecurus myosuroides), ryegrass, Italian (Italian ryegrass, Lolium multiflorum), wheat (winter wheat, Triticum aestivum), galium (catchweed bedstraw, Galium aparine), corn (Zea mays), crabgrass, large (large crabgrass, Digitaria sanguinalis), foxtail, giant, (giant foxtail, Setaria faberii), johnsongrass (Sorghum halepense), lambsquarters (Chenopodium album), morningglory (Ipomoea coccinea), nutsedge, yellow (yellow nutsedge, Cyperus esculentus), pigweed (Amaranthus retroflexus), ragweed (common ragweed, Ambrosia elatior), soybean (Glycine max), barnyardgrass (Echinochloa crus-galli), oilseed rape (Brassica napus), waterhemp (common waterhemp, Amaranthus rudis), and velvetleaf (Abutilon theophrasti) were planted into a blend of loam soil and sand and treated preemergence with test chemicals formulated in a non-phytotoxic solvent mixture which included a surfactant. At the same time, plants selected from these crop and weed species and also chickweed (common chickweed, Stellaria media), oat, wild (wild oat, Avena fatua), and kochia (Kochia scoparia), were planted in pots containing Sunshine Redi-Earth® planting medium comprising spaghnum peat moss, vermiculite, starter nutrients and dolomitic limestone and treated with postemergence applications of test chemicals formulated in the same manner. Plants ranged in height from 2 to 18 cm (1- to 4-leaf stage) for postemergence treatments. […] A dash (-) response means no test result.
# ragweed = assay: Test A preemergence; format: in vivo, Ambrosia elatior; settings: 0 to 100 scale (0 no effect, 100 complete control)
# Procedure, shortened: (§1)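 Seeds sown in loam soil–sand blend received a directed preemergence soil spray of test chemical in non-phytotoxic solvent with surfactant; postemergence plants, 2 to 10 cm at one- to two-leaf stage, were sprayed with the same formulation. Injury visually rated versus untreated controls after ~10 d in greenhouse, 0–100 scale.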
# chamomile = assay: Test D preemergence; format: in vivo, Matricaria inodora; settings: for Plant response rating (0 to 100), Chamomile: 16 g ai/ha, 0 is no effect, 100 is complete control; for Plant response rating: Chamomile: scale 0 to 100
# Source text: (§2) Seeds of plant species selected from bluegrass (annual bluegrass, Poa annua), blackgrass (Alopecurus myosuroides), canarygrass (Phalaris minor), chickweed (common chickweed, Stellaria media), galium (catchweed bedstraw, Galium aparine), bromegrass, down (downy bromegrass, Bromus tectorum), Russian thistle (Salsola kali), field poppy (Papaver rhoeas), field violet (Viola arvensis), foxtail, green (green foxtail, Setaria viridis), deadnettle (henbit deadnettle, Lamium amplexicaule), ryegrass, Ital. (Italian ryegrass, Lolium multiflorum), kochia (Kochia scoparia), lambsquarters (Chenopodium album), oilseed rape (Brassica napus), pigweed (Amaranthus retroflexus), chamomile (scentless chamomile, Matricaria inodora), speedwell (bird's-eye speedwell, Veronica persica), barley, spring (spring barley, Hordeum vulgare), wheat, spring (spring wheat, Triticum aestivum), buckwheat, wild (wild buckwheat, Polygonum convolvulus), wild mustard (Sinapis arvensis), oat, wild (wild oat, Avena fatua), radish, wild (wild radish, Raphanus raphanistrum), […]), barley, winter (winter barley, Hordeum vulgare), and wheat, winter (winter wheat, Triticum aestivum) were planted into a silt loam soil and treated preemergence with test chemicals formulated in a non-phytotoxic solvent mixture which included a surfactant. At the same time, these species were planted in pots containing Sunshine Redi-Earth® planting medium comprising spaghnum peat moss, vermiculite, starter nutrients and dolomitic limestone and treated with postemergence applications of the test chemicals formulated in the same manner. Plants ranged in height from 2 to 18 cm (1- to 4-leaf stage). Treated plants and controls were maintained in a controlled growth environment for 14 to 21 d after which time all species were compared to controls and visually evaluated. […] A dash (-) response means no test result.
# blackgrass = assay: Test D postemergence; format: in vivo, Alopecurus myosuroides; settings: scale 0 to 100
# Source text: as §2
# pigweed = assay: Test D postemergence; format: in vivo, Amaranthus retroflexus; settings: scale 0 to 100
# Source text: as §2
# foxtail, green = assay: Test D postemergence; format: in vivo, Setaria viridis; settings: scale 0 to 100
# Source text: as §2
# ryegrass, Italian = assay: Test A preemergence; format: in vivo, Lolium multiflorum; settings: 0 to 100 scale (0 no effect, 100 complete control)
# Procedure, shortened: as §1
Structure (SMILES),Plant response rating (scale of 0 to 100 where 0 is no effect and 100 is complete control) (morningglory; 125 g ai/ha),Plant response rating (scale of 0 to 100 where 0 is no effect and 100 is complete control) (morningglory; 250 g ai/ha),Morningglory plant response rating (0 to 100) (morningglory; 31 g ai/ha),Morningglory plant response rating (0 to 100) (morningglory; 62 g ai/ha),"Plant response rating (0 to 100), Chamomile (chamomile)",Plant response rating: Chamomile (chamomile; 31 g ai/ha),Plant response rating: Chamomile (chamomile; 62 g ai/ha),Plant response rating: Chamomile (chamomile; 125 g ai/ha),Plant response rating: Blackgrass (blackgrass; 16 g ai/ha),Plant response rating: Blackgrass (blackgrass; 31 g ai/ha),Plant response rating: Blackgrass (blackgrass; 62 g ai/ha),Plant response rating: Blackgrass (blackgrass; 125 g ai/ha),Plant response rating: Pigweed (pigweed; 16 g ai/ha),Plant response rating: Pigweed (pigweed; 31 g ai/ha),Plant response rating: Pigweed (pigweed; 62 g ai/ha),Plant response rating: Pigweed (pigweed; 125 g ai/ha),"Plant response rating: Foxtail, Green (foxtail, green; 16 g ai/ha)","Plant response rating: Foxtail, Green (foxtail, green; 31 g ai/ha)","Plant response rating: Foxtail, Green (foxtail, green; 62 g ai/ha)","Plant response rating: Foxtail, Green (foxtail, green; 125 g ai/ha)",further results
FC(F)(F)COc1nc(-c2ccc(Cl)cc2)nn1Cc1ccnc(C(F)(F)F)c1 [Compound 31],55,65,25,45,30,95,100,100,45,65,70,80,100,100,100,100,70,80,80,85,"Plant response rating, Ragweed (ragweed; 125 g ai/ha): 50; Plant response rating, Ragweed (ragweed; 500 g ai/ha): 70; Plant response rating, Ryegrass, Italian (ryegrass, Italian; 125 g ai/ha): 90; Plant response rating, Ryegrass, Italian (ryegrass, Italian; 500 g ai/ha): 100"
FC(F)(F)COc1nc(-c2ccccc2)nn1Cc1ccnc(C(F)(F)F)c1 [Compound 24],35,40,10,30,0,35,85,90,25,35,45,65,95,100,100,100,15,25,65,65,"Plant response rating, Ragweed (ragweed; 500 g ai/ha, approx. 10 d): 40; Plant response rating, Ryegrass, Italian (ryegrass, Italian; 125 g ai/ha): 70; Plant response rating, Ryegrass, Italian (ryegrass, Italian; 500 g ai/ha, approx. 10 d): 80"

# Reference: US10681909B2, “Herbicidal triazoles” (FMC Corporation, priority 2014, dated 2020)
